Assay results taken from patent US7541193B2, “Caged sensors, regulators and compounds and uses thereof” (Panomics, Inc., priority 2002, dated 2009).

Key:
PKC = experiment: photoactivated in vitro PKC assay initiated by uncaging caged ATP; assay type: biochemical; settings: exposed to 365 nm UV lamp for 10 min; excitation 485 nm, emission 535 nm
Procedure: FIG. 34 is a line graph depicting the results of a photoactivated PKC assay using caged ATP and a PKC sensor. […] Reactions were read on a fluorescent microtiter plate reader with excitation at 485 nm and emission at 535 nm.
FIG. 33 (see, also, FIG. 23) illustrates the activation of an in vitro PKC assay after exposure to 365 nm light. All components were mixed together in a 96-well microtiter plate. The plate was exposed to a 365 nm UV lamp for 10 min (step 3301) and immediately placed into a fluorescent microtiter plate reader for detection. The light-activated compound is DMNPE-caged ATP. […] See, e.g., McCray and Trentham (1989) “Properties and Uses of Photoreactive Caged Compounds” Annu Rev Biophys Biophys Chem 18:239 for a description of the caged ATP. The PKC probes and reaction set-up are based on Yeh et al. (2002) “Real time visualization of protein kinase activity in living cells” J Biol Chem 277: 11527-11532, with the replacement of normal ATP by DMNPE-caged ATP.

PKC enzyme = experiment: in vitro biochemical PKC assay with PKC sensor (not caged); settings: 1 mM ATP, 1 μM PKC sensor (not caged), 22 nM PKC enzyme; read-out: IC-50 determined in an in vitro biochemical assay
protein kinase C (PKC) = experiment: in vivo IC-50 determination with photolabile caged PKC sensor in living HeLa cells; assay type: cell-based; settings: HeLa cells transfected with 10 μM caged PKC sensor; 30 min inhibitor incubation; uncaging 1 J/cm^2 365 nm; 1 μM PMA; read-out: IC-50 determined in vivo
Procedure: The caged PKC sensor was transfected into the cells at a concentration of 10 μM, as follows. To 37.5 μl serum-free DMEM, 2.5 μl Profect P-2 and then 10 μl of caged PKC sensor (diluted to 500 μM in PBS) were added. The reagents were mixed gently and incubated for 30 minutes at room temperature. The DMEM was removed from the well containing the HeLa cells, and the cells were washed once with PBS. After addition of 450 μl serum-free DMEM to the Profect P-2-caged sensor complex, 50 μl of the complex was added to each well. The HeLa cells were incubated with the complex at 37° C. for 2 h (or optionally longer, with the addition of fresh DMEM). To uncage the caged PKC sensor, cells were exposed from beneath the plate to 1 J/cm^2 365 nm UV light. Uncaging light was produced by a BlueWave ™ UV Spot Light System fitted with a Lightguide mount assembly, Cool Blue™ filter, and Lightguide rod lens assembly (Dymax Corp., on the internet at dymax.com, part numbers 38600, 38670, and 38699). […] Fluorescent signal from the PKC sensor was read on an Acumen Explorer™ microplate reader.
Cells containing the caged sensor were incubated with 4-fold dilutions of GF109203X for 30 min before the cells were exposed to uncaging light (1 J/cm^2, 365 nm) and treated with 1 μM PMA. Fluorescent signal from the PKC sensor was read on an Acumen Explorer™ microplate reader. […]

**Q.** Which “signal response (relative fluorescence) of PKC reaction” value (PKC) does the source give for `COc1cc(C(C)OP(=O)(O)OP(=O)(O)OP(=O)(O)OCC2OC(n3cnc4c(N)ncnc43)C(O)C2O)c([N+](=O)[O-])cc1OC` (stereo not drawn) [DMNPE-caged ATP] here?
**A.** exhibits signal response similar to the reaction with normal ATP

**Q.** With `CN(C)CCCn1cc(C2=C(c3c[nH]c4ccccc34)C(=O)NC2=O)c2ccccc21` [GF109203X] as the compound, how does the IC50 (PKC enzyme) read?
**A.** 1100 nM

**Q.** What about the IC50 (protein kinase C (PKC)) of the same compound?
**A.** 1600 nM
